Laboratory results: US20230374460A1, “Methods for Cardiac Differentiation of Human Induced Pluripotent Stem Cells” (The Trustees of Columbia University in the City of New York, priority 2015, published 2023)

Columns and labels:
human iPSC lines = assay: Monolayer cardiac differentiation of iPSCs into beating cardiomyocytes (serum-containing protocol, optimisation of GSK3 inhibitor dose and oxygen level); assay type: cell-based; details: single use, 20% O2
Text: CHIR99021 (GSK3 inhibitor, #1386, Lot #6 & #7, Axon MedChem) and BIO (GSK3 inhibitor IX, #361550, Lot #D00148116, Calbiochem) (Minami et al., Cell reports 2, 1448-1460(2012)), IWP-3 (Wnt inhibitor, #SML0533, Lot #102m4613V, Sigma-Aldrich) resolved in Dimethyl Sulfoxide (DMSO, #276855, Sigma-Aldrich) were used for monolayer differentiation of iPSCs plated on Geltrex in 6-well plate or 10 cm dish. To prepare differentiating culture media, only one freeze and thaw cycle was confirmed for all aliquots of small compounds CHIR99021 and BIO and recombinant human growth factors. Twice freeze and thaw cycle was confirmed for IWP-3 aliquots. For the differentiation protocol with serum-containing media, DF20/5 media was used for cardiac differentiation and culture: DMEM/F-12 (with GlutaMax I) containing 20% or 5% Hyclone FBS, 1% non-essential amino acid, P.S. and 0.1 mM bME. Additional D-glucose was added to only DF20 as high glucose media (final 4.5 g/l) to enhance mesoderm differentiation from Day 1 to Day 4. For BIO and CHIR treatment, media was changed everyday. For IWP-3 treatment, media was changed every other day. DF5 media was used for the maintenance of cardiomyocytes after differentiation (Day 11˜) and media was changed every other day. Changed media using DF20 with small compounds required ˜3 ml per well in 6-well and ˜15 ml per 10 cm dish every other day since adding 2-2.5 ml of fresh media to a well of 6-well plates was not sufficient for high confluence of cells during differentiation into cardiomyocytes, resulting in lower efficiency of cardiac differentiation. […] For the differentiation protocol without serum containing media, Iscove's Modified Dulbecco Media (IMDM, Sigma-Aldrich) with B27 supplement (-minus insulin version, Life Technologies) was used for mesoderm differentiation (Day 1 to Day 3) and IMDM media with B27 (regular version, Life Technologies) was used for further differentiation and maintenance (Day 4˜). […] For the comparison between different serum free monolayer cardiac differentiation protocols (FIG. 3), RPMI1640 media (Sigma-Aldrich) and Activin A and BMP4 (R & D Systems), B27 supplement (both regular & minus insulin version, Life Technologies), human albumin (Sigma) and L-ascorbic acid 2-phosphate (Sigma-Aldrich) were used to make the corresponding differentiation media. In case of using DMEM/F-12 media for serum-free protocol, all cells died during early stage of cardiac differentiation (data not shown). All images and movies were taken in the tissue culture room using TS100F-LED microscope operated by Nikon NIS-Elements with objectives (4×, CFI Plan Fluor DL, NA 0.13; 10×, CFI Achromat ADL, NA0.25; 20×, CFI Achromat LWD ADL, NA 0.4, Nikon). Antibodies to sarcomeric alpha-actinin (clone #EA-53, Sigma-Aldrich) were used for immunocytochemistry of human cardiomyocytes (3-4 weeks later after cardiac differentiation). The cell size was analyzed blindly by E. Uche-Anya using Fiji software (FIG. 6). FACS analyses were performed in Columbia Center for Translational Immunology (CCTI) using a BD FACS Calibur using control and patient cardiomyocytes at day 19. Standard protocol for FACS was used first with 0.5% saponin (Sigma-Aldrich) for permeabilization at blocking step and next with sarcomeric alpha-actinin antibody (Sigma-Aldrich, clone #EA-53, 1/200 dilution) or cardiac troponin T (clone #13-11, Thermo Scientific, 1/500 dilution) and goat anti-mouse Alexa Fluor 488 secondary antibody (Life Technologies, 1/500) in FACS buffer (0.1% saponin, 2% FBS and 2 mM EDTA in Hanks buffer in HEPES, HBSS). The FACS data analyses were blindly performed by J. Feng. The identical cell samples were also used before fixation, for RNA/cDNA preparation and gene expression profiling using qPCR. Dimethyl Sulfoxide (DMSO) quality is critical to get reproducible results using small compounds, especially CHIR99021 (CHIR, #1386, lot #6 & #7, Axon MedChem). DMSO should be kept from ambient air. […]

LQTS cardiomyocytes = assay: Dual optical recording of action potentials (ArcLight) and calcium handling (R-GECO1) in LQTS (Timothy syndrome) iPSC-derived cardiomyocytes; assay type: cell-based, human
Description: Plasmids of R-GECO1 (Addgene #32462) (Zhao et al., 2011) and ArcLight (Addgene #36857) (Jin et al., 2012) were used as template to amplify the cDNA using Phusion polymerase (Thermo Scientific) with primer sets that allowed us to add restriction enzyme site EcoRI and Kozak sequence before the start codon (without nuclear localization signal for R-GECO) and another site XhoI after the stop codon. These PCR products were subcloned into lentiviral vector that was prepared from LV-SD-Cre (Addgene, #12105, no longer available currently) digested with EcoRI and XhoI. XL-10 Gold competent cells (Agilent) transformed with these LV-SD vectors were inoculated at 24-30° C. The purified LV-SD vectors were transfected together with pCMV-dR8.2 dvpr and pCMV-VSV-G (Addgene #8455 & 8454) as follow: HEK293T cells that were plated at 5×10^5 cell/ml (2 ml per well) one day before were transfected with total 3.4 μg per well (ratio, LV-SD:dR8.2:VSV-G=8:8:1) and LF-2K (8.0 μl per well) in a 6-well plate. The next day the media was changed. Two days after transfection, culture media was harvested (again fresh media was added to transfected HEK 293T cells) and filtered using 0.45 μm PES filter (VWR) and then directly added to wells containing monolayer cardiomyocytes (at 2-3 weeks after inducing cardiac differentiation). No polybrene was used for viral infection. Seventy-two hours after transfection, the culture media was again collected and used as secondary infection. The next day media was changed to DF5 media for infected cardiomyocytes. In case of serum-free condition, Lenti-X concentrator (TaKaRa/Clontech) was used for media change, following the manufacture's instruction. Three to five days after the secondary infection, monolayer cardiomyocytes were transferred to 35 mm glass bottom culture dishes (7 mm diameter, No. 1.5 glass) coated with Geltrex. Nikon Ti-U epi-fluorescent microscope connected to EMCDD Digital Monochrome camera (Evolve, EVO-512-M-FW-16-AC, 512×512, Photometrics) was used with LED light source (Lumencore Spectra X 6 line LED system, with Chroma excitation mounted filters, ET395/25x, ET470/30, ET550/15x, ET640/30x;) with dichroic mirror and emission filter (dichroic mirror, D/F/Cy3/Cy5pc; emission, ET430/36 513/44 595/41 719/105) operated by MetaFlour (Molecular Devices, acquisition: exposure time, 20 ms; gain 3 (6×); transfer speed, 5 MHz, Image size: 512×512; binning, 1.0). Temperature of the bath solution was maintained at approximately 35° C. using a digital temperature controller (TC-344B, Warner Instruments) for the duration of the experiment. Nikon objective lens 40× (CF1 S Fluor, NA 0.90) for cell clusters and 60× (CFI Plan Apo Lambda H, NA 1.40) for single cells were used to capture two fluorescent signals as R-GECO1 (illumination control. 10 in 0-255, cy3) and ArcLight (150 in 0-255, FITC, 4 or 8 frames per sec). Isoproterenol (10 μM, Sigma Aldrich) and R-roscovitine (0.5 and 5 μM) were used for fluorescent imaging. The effect of serum concentration on the imaging using ArcLight and R-GECO1 in control and patient cells was not observed at approximately 35° C. […] Daily imaging in cardiomyocytes infected at day 15 was conducted for 18 days (day 23-40). Additional recordings were performed at day 90 to examine low long ArcLight and R-GECO1 signals are available.
A dual optical imaging system using two genetically encoded indicators, ArcLight for voltage and R-GECO1 for calcium transients, has been developed to efficiently phenotype the patient specific iPSC-derived cardiomyocytes derived from the serum containing protocol (Song, et al. Stem Cells Transl Med. 4(5):468-75 (2015)). […] Those phenotypes of Timothy syndrome patient iPSCs derived cardiomyocytes can be rescued by 5 μM Roscovitine treatment (FIGS. 2B-2C and FIG. 5).

[1] = tested on: control (Ctrl) cardiomyocytes; assay: Dual optical recording of action potentials (ArcLight) and calcium handling (R-GECO1) in control iPSC-derived cardiomyocytes; assay type: cell-based, human; details: 5 μM, 10 min
Description: Plasmids of R-GECO1 (Addgene #32462) (Zhao et al., 2011) and ArcLight (Addgene #36857) (Jin et al., 2012) were used as template to amplify the cDNA using Phusion polymerase (Thermo Scientific) with primer sets that allowed us to add restriction enzyme site EcoRI and Kozak sequence before the start codon (without nuclear localization signal for R-GECO) and another site XhoI after the stop codon. These PCR products were subcloned into lentiviral vector that was prepared from LV-SD-Cre (Addgene, #12105, no longer available currently) digested with EcoRI and XhoI. XL-10 Gold competent cells (Agilent) transformed with these LV-SD vectors were inoculated at 24-30° C. The purified LV-SD vectors were transfected together with pCMV-dR8.2 dvpr and pCMV-VSV-G (Addgene #8455 & 8454) as follow: HEK293T cells that were plated at 5×10^5 cell/ml (2 ml per well) one day before were transfected with total 3.4 μg per well (ratio, LV-SD:dR8.2:VSV-G=8:8:1) and LF-2K (8.0 μl per well) in a 6-well plate. The next day the media was changed. Two days after transfection, culture media was harvested (again fresh media was added to transfected HEK 293T cells) and filtered using 0.45 μm PES filter (VWR) and then directly added to wells containing monolayer cardiomyocytes (at 2-3 weeks after inducing cardiac differentiation). No polybrene was used for viral infection. […]

[2] = monolayer of LQTS cardiomyocytes, serum-containing protocol (FIG. 5D)

How did the beating cells (human iPSC lines; BIO 1 μM) turn out when `O=C1Nc2cc(Br)ccc2/C1=C1/Nc2ccccc2/C1=N\O` [BIO, (2′ Z,3′ £)-6-Bromoindirubin-3′-oxime] was run?
Its beating cells is “provided beating cardiomyocytes and Yes”.

What about the beating cells (human iPSC lines; BIO 2 μM) of the same molecule?
Its beating cells is “Yes”.

And the “beating cells, where in the well” value (human iPSC lines; BIO 2 μM)?
Its value is “only around the edge of well”.

And the beating cells (human iPSC lines; BIO 4 μM)?
The beating cells was “No”.

What about the beating cells (human iPSC lines; BIO 8 μM) of the same molecule?
The beating cells was “No”.

With `Cc1c[nH]c(-c2cnc(NCCNc3ccc(C#N)cn3)nc2-c2ccc(Cl)cc2Cl)n1` [CHIR] as the molecule, how does the beating cells (human iPSC lines; CHIR 5 μM) read?
Its beating cells is “provided beating cardiomyocytes and Yes”.

And the “beating cells, where in the well” value (human iPSC lines; CHIR 5 μM)?
Its value is “only around the center of well”.

What about the beating cells (human iPSC lines; CHIR 10 μM) of the same molecule?
Its beating cells is “No”.

And the beating cells (human iPSC lines; CHIR 15 μM)?
The beating cells was “No”.

And the beating cells (human iPSC lines; CHIR 20 μM)?
The beating cells was “No”.

How did the “phenotypes in action potentials, channel inactivation and calcium handling in Timothy syndrome cardiomyocytes” value (LQTS cardiomyocytes) turn out when `CC[C@H](CO)Nc1nc(NCc2ccccc2)c2ncn(C(C)C)c2n1` [Roscovitine] was run?
The value was “rescued the phenotypes”.

And the APD90 (LQTS cardiomyocytes; 5 μM, 10 min, LQTS cardiomyocytes, serum-free condition (FIG. 5H))?
The APD90 was “positive effects”.

What about the “number of spontaneous calcium transients” value (LQTS cardiomyocytes; 5 μM, 10 min, LQTS cardiomyocytes, serum-free condition (FIG. 5I)) of the same molecule?
Its value is “positive effects”.

What about the “phenotypes of Timothy syndrome cardiomyocytes” value (LQTS cardiomyocytes; 5 μM, cardiomyocytes derived using the serum-free protocol) of the same molecule?
Its value is “rescued the phenotypes”.

And the “phenotypes (prolonged action potentials and abnormal calcium handling) of Timothy syndrome cardiomyocytes” value (LQTS cardiomyocytes; 5 μM, cardiomyocytes from the serum-containing protocol)?
Its value is “rescued”.

What about the “irregular calcium handling and electrical activities” value (LQTS cardiomyocytes; 5 μM, single LQTS CMs, before, during and after treatment (FIG. 2B)) of the same molecule?
Its value is “prevented”.

And the “action potential (APD90, 90% from peak)” value (LQTS cardiomyocytes; monolayer of LQTS cardiomyocytes, serum-containing protocol (FIG. 5C))?
The value was “shortened”.

What about the beating rate (LQTS cardiomyocytes; [2]) of the same molecule?
Its beating rate is “increased”.

What about the “number of spontaneous calcium transients” value (LQTS cardiomyocytes; [2]) of the same molecule?
Its value is “increased”.

And the prolonged action potentials (LQTS cardiomyocytes; single LQTS cardiomyocytes, n=12, 4 lines from two patients (FIG. 2C))?
Its prolonged action potentials is “rescued”.

And the APD90 ([1]; serum-free protocol (FIG. 5F))?
Its APD90 is “no effect”.

And the “number of spontaneous calcium transients” value ([1]; serum-free protocol (FIG. 5G))?
The value was “no effect”.
